Columns and labels:
rat mGlu2 receptor = target: T1, rat mGlu2 receptor (Rattus norvegicus, UniProt P31421); assay: [3H]-LY354740 binding on mGlu2 transfected CHO cell membranes; settings: inhibition of 10 nM [3H]-LY354740 binding, room temperature, 1 hour
T1 construct: expressed in transfected cells; membranes prepared from them
Source text: [^3H]-LY354740 Binding on mGlu2 Transfected CHO Cell Membranes. Transfection and Cell Culture
cDNA encoding the rat mGlu2 receptor protein in pBluescript II was subcloned into the eukaryotic expression vector pcDNA I-amp from Invitrogen Ltd (Paisley, UK). This vector construct (pcD1 mGR2) was co-transfected with a psvNeo plasmid encoding the gene for neomycin resistance, into CHO cells by a modified calcium phosphate method described by Chen & Okayama (1988). The cells were maintained in Dulbecco's Modified Eagle medium with reduced L-glutamine (1 mM final concentration), 36 mg/L L-Proline and 10% dialysed foetal calf serum from Gibco-Invitrogen; the medium was supplemented with 500 microM α-methyl-4-carboxyphenylglycine (MCPG). Selection was made in the presence of G-418 (300 ug/ml final concentration). Clones were identified by reverse transcription of 5 μg total RNA, followed by PCR using mGlu2 receptor specific primers 5′-[…]-3′ and 5′-[…]-3′ in 60 mM Tris HCl (pH 10), 15 mM (NH4)2SO4, 2 mM MgCl2, 25 units/ml Taq Polymerase with 30 cycles annealing at 60° C. for 1 min., extension at 72° C. for 30 s, and 1 min. 95° C. denaturation.
Cells, cultured as above, were harvested and washed three times with cold PBS and frozen at −80° C. The pellet was resuspended in cold 20 mM HEPES-NaOH buffer containing 10 mM EDTA (pH 7.4), and homogenized with a polytron (Kinematica, AG, Littau, Switzerland) for 10 s at 10 000 rpm. After centrifugation for 30 min. at 4° C., the pellet was washed once with cold 20 mM HEPES-NaOH buffer containing 0.1 mM EDTA, (pH 7.4). After a second centrifugation for 30 min. at 4° C. the pellet was resuspended in cold 20 mM HEPES-NaOH buffer containing 0.1 mM EDTA, (pH 7.4). Protein content was measured using the Micro BCA method from Pierce-Perbio (Rockford, Ill., USA) using bovine serum albumin as standard.
After thawing, the membranes were resuspended in cold 50 mM Tris-HCl buffer containing 2 mM MgCl2 (pH 7.4) (binding buffer). The final concentration of the membranes in the assays was 25 μg protein/ml. Inhibition experiments were performed with membranes incubated with 10 nM [^3H]-LY354740 at room temperature, for 1 hour, in presence of various concentrations of the compound to be tested. Following the incubations, membranes were filtered onto Whatmann GF/B glass fiber filters or onto GF/B Unifilter plates and washed 5 times with cold binding buffer. Non specific binding was measured in the presence of 10 μM (2S,2′R,3′R)-2-(2′3′-Dicarboxycyclopropyl)glycine (DCG IV from Tocris, Ellisville, Mo. USA). After transfer of the filters into plastic vials containing 10 ml of Ultima-gold scintillation fluid from Perkin-Elmer (Boston, Mass., USA), the radioactivity was measured by liquid scintillation in a Tri-Carb 2500 TR counter (Packard, Zürich, Switzerland). For 96-Unifilter plates the radioactivity was measured after addition of Microscint 40 scintillation fluid (Perkin Elmer, Boston Mass.) using a TopCount NXT (Packard)
The inhibition curves were fitted with a four parameter logistic equation giving IC50 values, and Hill coefficients.

T1 sequence (P31421 19-872): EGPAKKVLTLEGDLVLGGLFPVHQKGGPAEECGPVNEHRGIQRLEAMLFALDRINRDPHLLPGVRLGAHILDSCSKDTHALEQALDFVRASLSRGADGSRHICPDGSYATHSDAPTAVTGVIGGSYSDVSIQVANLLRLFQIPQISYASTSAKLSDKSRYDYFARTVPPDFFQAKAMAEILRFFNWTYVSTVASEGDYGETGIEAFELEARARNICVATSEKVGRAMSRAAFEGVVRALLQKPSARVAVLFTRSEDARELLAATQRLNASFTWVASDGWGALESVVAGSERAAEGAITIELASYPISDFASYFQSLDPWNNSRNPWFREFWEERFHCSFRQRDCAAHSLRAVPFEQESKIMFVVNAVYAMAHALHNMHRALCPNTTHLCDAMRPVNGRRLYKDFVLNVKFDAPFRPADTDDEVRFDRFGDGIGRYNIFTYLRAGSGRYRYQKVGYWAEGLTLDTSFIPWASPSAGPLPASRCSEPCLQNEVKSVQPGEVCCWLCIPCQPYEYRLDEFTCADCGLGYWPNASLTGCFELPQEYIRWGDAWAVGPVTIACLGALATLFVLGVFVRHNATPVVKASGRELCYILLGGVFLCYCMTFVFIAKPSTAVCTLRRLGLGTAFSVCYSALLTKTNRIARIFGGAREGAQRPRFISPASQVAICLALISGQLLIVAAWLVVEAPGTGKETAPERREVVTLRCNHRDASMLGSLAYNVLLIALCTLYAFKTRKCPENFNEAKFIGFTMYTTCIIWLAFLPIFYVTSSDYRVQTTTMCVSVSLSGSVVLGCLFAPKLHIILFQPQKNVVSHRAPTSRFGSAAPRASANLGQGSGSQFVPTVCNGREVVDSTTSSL

Row | Structure (SMILES) | Ki (rat mGlu2 receptor) | melting point
1 | Cc1cc2c(cc1C(F)(F)F)NC(=O)CC(c1cccc(-c3cccc(S(=O)(=O)NC(C)(C)C)c3)c1)=N2 [Example 2, 3′-(8-Methyl-4-oxo-7-trifluoromethyl-4,5-dihydro-3H-benzo[b][1,4]diazepin-2-yl)-biphenyl-3-sulfonic acid tert-butylamide] | 20 nM | 133 °C (dec.)
2 | Cc1cc2c(cc1C(F)(F)F)NC(=O)CC(c1cccc(-c3cccc(S(N)(=O)=O)c3)c1)=N2 [Example 3, 3′-(8-Methyl-4-oxo-7-trifluoromethyl-4,5-dihydro-3H-benzo[b][1,4]diazepin-2-yl)-biphenyl-3-sulfonic acid amide] | 0.9 nM | 235 to 239 °C (dec.)
3 | CC(C)(C)NS(=O)(=O)c1cccc(-c2cccc(C3=Nc4ccc(C(F)(F)F)cc4NC(=O)C3)c2)c1 [Example 4, 3′-(4-Oxo-7-trifluoromethyl-4,5-dihydro-3H-benzo[b][1,4]diazepin-2-yl)-biphenyl-3-sulfonic acid tert-butylamide] | 12 nM | 179 to 181 °C
4 | CC(C)(C)NS(=O)(=O)c1ccc(-c2cccc(C3=Nc4ccc(C(F)(F)F)cc4NC(=O)C3)c2)cc1 [Example 5, 3′-(4-Oxo-7-trifluoromethyl-4,5-dihydro-3H-benzo[b][1,4]diazepin-2-yl)-biphenyl-4-sulfonic acid tert-butylamide] | 16 nM | 229 to 233 °C
5 | CCOc1cc2c(cc1C(F)(F)F)NC(=O)CC(c1cccc(-c3ccc(S(=O)(=O)NC(C)(C)C)cc3)c1)=N2 [Example 7, 3′-(8-Ethoxy-4-oxo-7-trifluoromethyl-4,5-dihydro-3H-benzo[b][1,4]diazepin-2-yl)-biphenyl-4-sulfonic acid tert-butylamide] | 30 nM | > 260 °C
6 | NS(=O)(=O)c1cccc(-c2cccc(C3=Nc4ccc(C(F)(F)F)cc4NC(=O)C3)c2)c1 [Example 8, 3′-(4-Oxo-7-trifluoromethyl-4,5-dihydro-3H-benzo[b][1,4]diazepin-2-yl)-biphenyl-3-sulfonic acid amide] | 1.7 nM | 170 °C (dec.)
7 | CCOc1cc2c(cc1C(F)(F)F)NC(=O)CC(c1cccc(-c3cccc(S(N)(=O)=O)c3)c1)=N2 [Example 10, 3′-(8-Ethoxy-4-oxo-7-trifluoromethyl-4,5-dihydro-3H-benzo[b][1,4]diazepin-2-yl)-biphenyl-3-sulfonic acid amide] | 2.7 nM | 210 to 220 °C (dec.)
8 | CCOc1cc2c(cc1C(F)(F)F)NC(=O)CC(c1cccc(-c3ccc(S(N)(=O)=O)cc3)c1)=N2 [Example 11, 3′-(8-Ethoxy-4-oxo-7-trifluoromethyl-4,5-dihydro-3H-benzo[b][1,4]diazepin-2-yl)-biphenyl-4-sulfonic acid amide] | 3 nM | 245 to 250 °C (dec.)
9 | CC(C)CN(C)c1cc2c(cc1C(F)(F)F)NC(=O)CC(c1cccc(-c3cccc(S(N)(=O)=O)c3)c1)=N2 [Example 15, 3′-[8-(Isobutyl-methyl-amino)-4-oxo-7-trifluoromethyl-4,5-dihydro-3H-benzo[b][1,4]diazepin-2-yl]-biphenyl-3-sulfonic acid amide] | 8.7 nM | 232 °C (dec.)
10 | NS(=O)(=O)c1ccc(-c2cccc(C3=Nc4ccc(-c5ccccc5F)cc4NC(=O)C3)c2)cc1 [Example 16, 3′-[7-(2-Fluoro-phenyl)-4-oxo-4,5-dihydro-3H-benzo[b][1,4]diazepin-2-yl]-biphenyl-4-sulfonic acid amide] | 5.6 nM | 240 to 250 °C (dec.)
11 | NS(=O)(=O)c1cccc(-c2cccc(C3=Nc4ccc(-c5ccccc5F)cc4NC(=O)C3)c2)c1 [Example 17, 3′-[7-(2-Fluoro-phenyl)-4-oxo-4,5-dihydro-3H-benzo[b][1,4]diazepin-2-yl]-biphenyl-3-sulfonic acid amide] | 2.2 nM | 230 to 232 °C
12 | CC(C)CNc1cc2c(cc1C(F)(F)F)NC(=O)CC(c1cccc(-c3cccc(S(N)(=O)=O)c3)c1)=N2 [Example 19, 3′-(8-Isobutylamino-4-oxo-7-trifluoromethyl-4,5-dihydro-3H-benzo[b][1,4]diazepin-2-yl)-biphenyl-3-sulfonic acid amide] | 3.6 nM | 251 °C (dec.)

Further compounds by falling Ki (rat mGlu2 receptor), results first:

Row | Ki (rat mGlu2 receptor) | melting point | Structure (SMILES)
13 | 21 nM | – | CC(C)CNc1cc2c(cc1C(F)(F)F)NC(=O)CC(c1cccc(-c3ccc(S(N)(=O)=O)cc3)c1)=N2 [Example 18, 3′-(8-Isobutylamino-4-oxo-7-trifluoromethyl-4,5-dihydro-3H-benzo[b][1,4]diazepin-2-yl)-biphenyl-4-sulfonic acid amide]
14 | 17 nM | 236 °C (dec.) | CC(C)CN(C)c1cc2c(cc1C(F)(F)F)NC(=O)CC(c1cccc(-c3ccc(S(N)(=O)=O)cc3)c1)=N2 [Example 14, 3′-[8-(Isobutyl-methyl-amino)-4-oxo-7-trifluoromethyl-4,5-dihydro-3H-benzo[b][1,4]diazepin-2-yl]-biphenyl-4-sulfonic acid amide]
15 | 9 nM | 215 to 218 °C | CCOc1cc2c(cc1C(F)(F)F)NC(=O)CC(c1cccc(-c3cccc(S(=O)(=O)NC(C)(C)C)c3)c1)=N2 [Example 6, 3′-(8-Ethoxy-4-oxo-7-trifluoromethyl-4,5-dihydro-3H-benzo[b][1,4]diazepin-2-yl)-biphenyl-3-sulfonic acid tert-butylamide]
16 | 3.1 nM | 246 °C (dec.) | CN(C)c1cc2c(cc1C(F)(F)F)NC(=O)CC(c1cccc(-c3ccc(S(N)(=O)=O)cc3)c1)=N2 [Example 12, 3′-(8-Dimethylamino-4-oxo-7-trifluoromethyl-4,5-dihydro-3H-benzo[b][1,4]diazepin-2-yl)-biphenyl-4-sulfonic acid amide]
17 | 3 nM | 195 to 210 °C (dec.) | NS(=O)(=O)c1ccc(-c2cccc(C3=Nc4ccc(C(F)(F)F)cc4NC(=O)C3)c2)cc1 [Example 9, 3′-(4-Oxo-7-trifluoromethyl-4,5-dihydro-3H-benzo[b][1,4]diazepin-2-yl)-biphenyl-4-sulfonic acid amide]
18 | 1.9 nM | > 260 °C | Cc1cc2c(cc1C(F)(F)F)NC(=O)CC(c1cccc(-c3ccc(S(N)(=O)=O)cc3)c1)=N2 [Example 1, 3′-(8-Methyl-4-oxo-7-trifluoromethyl-4,5-dihydro-3H-benzo[b][1,4]diazepin-2-yl)-biphenyl-4-sulfonic acid amide]
19 | 1.2 nM | 258 °C (dec.) | CN(C)c1cc2c(cc1C(F)(F)F)NC(=O)CC(c1cccc(-c3cccc(S(N)(=O)=O)c3)c1)=N2 [Example 13, 3′-(8-Dimethylamino-4-oxo-7-trifluoromethyl-4,5-dihydro-3H-benzo[b][1,4]diazepin-2-yl)-biphenyl-3-sulfonic acid amide]

— patent US7511033B2, “Dihydro-benzo[B][1,4]diazepin-2-one sulfonamide derivatives” (Hoffmann-La Roche Inc., priority 2007, dated 2009)
